From patent US11858925B2, “GAS41 inhibitors and methods of use thereof” (The Regents of the University of Michigan, priority 2020, dated 2024)
Read-outs that look alike come from different tables or passages of the source.

Assays:
[1] = biological target: T1, His6-tagged full-length GAS41 (Homo sapiens, UniProt O95619); test: AlphaScreen competition assay with full-length GAS41 and biotin-H3K23crK27cr; type: binding
T1 construct: using His6-tagged full-length GAS41 and biotinylated-, di-crotonylated-H3 peptide
Procedure: An AlphaScreen competition assay was also developed using His6-tagged full-length GAS41 and biotinylated-, di-crotonylated-H3 peptide (biotin-H3K23crK27cr). For full-length protein competition experiments, 100 nM MOCR-his6-Gas41 protein was incubated with 100× competitor in 50 mM HEPES pH 7.5, 100 mM NaCl, 1 mM TCEP, 0.05% BSA, 0.01% Tween-20 for 1 hour at 1% DMSO in a 96-well ½-Area AlphaPlate. H3K23crK27cr-biotin was added to a final concentration of 25 nM and incubated for 1 hour. Nickel Chelate Acceptor AlphaScreen beads were added to a final concentration of 10 μg/mL and incubated for 1 hour. Streptavidin Donor AlphaScreen beads were added to a final concentration of 10 μg/mL and incubated for 2 hours. Alpha signal was measured on a Pherastar plate reader.

GAS41 YEATS domain = biological target: T2, GAS41 YEATS domain (Homo sapiens, UniProt O95619); test: AlphaScreen dimerization assay with his6-Gas41(13-158) and avi-Gas41-YEATS; type: binding; conditions: titration of his6-Gas41(13-158) and avi-Gas41-YEATS; Hook effect at highest concentrations
T2 construct: 500 nM his6-Gas41(13-158) and 250 nM avi-Gas41-YEATS were incubated; His-tagged and biotin-labeled Avi-tagged GAS41 YEATS domain constructs
Procedure: An AlphaScreen assay based on His-tagged and biotin-labeled Avi-tagged GAS41 YEATS domain constructs was developed. For dimerization experiments, 500 nM his6-Gas41(13-158) and 250 nM avi-Gas41-YEATS were incubated in 50 mM HEPES pH 7.5, 100 mM NaCl, 1 mM TCEP, 0.05% BSA, 0.01% Tween-20 in a 96-well ½-Area AlphaPlate incubated for 30 minutes. Compounds 221 and 223 were added to a final concentration of 250 nM at 1% DMSO. Nickel Chelate Acceptor AlphaScreen beads were added to a final concentration of 10 μg/mL and incubated for 1 hour. Streptavidin Donor AlphaScreen beads were added to a final concentration of 10 μg/mL and incubated for 2 hours. For competition experiments with the dimeric complex, 500 nM his-Gas41(13-158) and 250 nM avi-Gas41-YEATS were incubated in assay buffer with 250 nM dimeric inhibitor for 30 minutes before the addition of monomeric competitor. AlphaScreen beads were added as in previous experiments. Alpha signal was measured on a Pherastar plate reader.
(§1) The signal was further decreased at highest compound concentrations, and indicates saturation of YEATS domain via independent inhibitor molecules (Hook effect).

[2] = biological target: T3, 15N-labeled GAS41 YEATS domain (Homo sapiens, UniProt O95619); test: 1H-15N HSQC NMR binding to 15N-labeled GAS41 YEATS domain; conditions: 60 μM 15N-labeled GAS41 YEATS; 60 μM Compound 85 or 30 μM Compound 223
T3 construct: GAS41 YEATS domain were also compared by NMR
Procedure: FIGS. 2A-2C show data for activities of compounds disclosed herein. A) Results of a dimerization assay to determine bivalent inhibitor-induced dimerization of GAS41 YEATS domain, as described in Example 6. B) ^1H-^15N HSQC spectrum of 60 μM ^15N-labeled GAS41 YEATS domain (black) and in presence of 60 μM Compound 85 (red). C) ^1H-^15N HSQC spectrum of 60 μM ^15N-labeled GAS41 YEATS domain in presence of 30 μM Compound 223 (red).
as §1

H1299 cells = test: Growth inhibition of H1299 cells; type: cell-based; conditions: for GI50: Homo sapiens
Procedure: (§2) To investigate cellular activity of GAS41 inhibitors, H1299 cells were treated with monomeric Compound 88 and dimeric Compound 221 for 4 days. […] To determine whether growth inhibition is dependent on presence of GAS41 we developed A549 GAS41 knocked-out cells using the CRISPR/CAS9 system. We found GAS41-KO were viable but grew more slowly compare with parental A549 cells and had reduced growth by ˜70% at day 14 (FIG. 4B). […] Next, we evaluated the effect of Compound 221 on growth of two NSCLC cell lines H1299 and H1933 with GAS41 amplification. […] Such effect correlates closely with activity of Compound 221 in NanoBit assay (FIG. 3). To further validate on-target activity of Compound 221, we tested expression of GAS41 target genes in H1299 (Hsu 2018). […] Altogether, dimeric inhibitor Compound 221 reduces binding of GAS41 to acetylated H3.3 in cells and induces on-target growth inhibition in NSCLCs lines.

[3] = biological target: T4, GAS41-WT interaction with H3.3 (Homo sapiens, UniProt O95619); test: NanoBiT assay, LgBiT-GAS41-WT and SmBiT-H3.3 in HEK293T cells; type: cell-based; conditions: 24 h treatment, 293T cells, estimated, read-out: IC50, inhibition of the luminescence signal
T4 construct: expressed in transfected cells; host or cells: HEK293T
Procedure: A NanoBiT assay (Promega Corporation, Madison, WI) was developed to detect inhibition of protein-protein interaction in HEK293T cells by compounds. GAS41-WT and GAS41-W93A mutant were cloned into pBiT1.1-C[TK/LgBiT] vector. SmBiT-H3.3 was purchased from Promega. HEK293T cells (4×10E5) were plated into 6-well plates (DMEM with 10% FBS) and incubated for 5 h. The LgBiT-GAS41 and SmBiT-H3.3 plasmids were co-transfected using FuGENE HD for 42 h. 5×10^4 cells were transferred into 96-well white plates (DMEM with 10% FBS and 1% Penicillin and Streptomycin) and treated with compounds for 24 h. After the Nano-Glo Live Cell Reagent was added to each well, the luminescence was measured immediately using PHERAstar FS instrument.
Introduction of a point mutation W93A in LgBit GAS41 abolishing histone recognition (Hsu 2018) largely diminished luminescence signal and validates the NanoBit assay.

A549 cells = test: Growth inhibition of A549 cells; type: cell-based; conditions: Homo sapiens, 12 μM concentration
Procedure: as §2

A549 GAS41-KO cells = test: Growth of A549 GAS41 knocked-out cells; type: cell-based
Procedure: as §2

H1933 cells = test: Growth inhibition of H1933 cells; type: cell-based; conditions: 336 h, day 14
Procedure: as §2

[4] = AlphaScreen assay, bin Less than 500 nM, read-out: GAS41 YEATS inhibitor IC50

T1 sequence (O95619 whole entry): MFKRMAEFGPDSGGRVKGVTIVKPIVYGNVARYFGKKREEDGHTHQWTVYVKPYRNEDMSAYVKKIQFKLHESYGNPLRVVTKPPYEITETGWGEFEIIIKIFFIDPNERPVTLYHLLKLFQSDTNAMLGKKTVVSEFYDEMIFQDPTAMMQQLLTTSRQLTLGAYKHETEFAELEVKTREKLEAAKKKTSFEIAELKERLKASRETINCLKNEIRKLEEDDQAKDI
T3 sequence (O95619 15-158 limits assumed): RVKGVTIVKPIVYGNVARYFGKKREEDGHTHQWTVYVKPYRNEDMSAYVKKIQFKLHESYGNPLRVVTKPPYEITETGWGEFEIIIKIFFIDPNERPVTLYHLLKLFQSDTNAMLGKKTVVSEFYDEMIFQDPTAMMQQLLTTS
T4 sequence (O95619 whole entry): as the sequence (O95619 whole entry) above
T2 sequence (O95619 13-158 limits assumed): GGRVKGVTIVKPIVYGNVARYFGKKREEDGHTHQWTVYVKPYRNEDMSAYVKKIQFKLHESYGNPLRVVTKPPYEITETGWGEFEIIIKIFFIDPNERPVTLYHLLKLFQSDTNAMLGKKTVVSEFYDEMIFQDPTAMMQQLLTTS
T2 sequence (O95619 15-158 limits assumed): as the sequence (O95619 15-158 limits assumed) above

| SMILES | IC50 [1, 4] [nM] | other results |
| --- | --- | --- |
| O=C(Nc1ccc(C(=O)N2CC(c3nccs3)C2)s1)[C@@H]1C[C@@H](OCCCCCCO[C@H]2CN[C@H](C(=O)Nc3ccc(C(=O)N4CC(c5nccs5)C4)s3)C2)CN1 [Compound 223, (2S,2′S,4R,4′R)-4,4′-(hexane-1,6-diylbis(oxy))bis(N-(5-(3-(thiazol-2-yl)azetidine-1-carbonyl)thiophen-2-yl)pyrrolidine-2-carboxamide)] | < 500 | luminescence signal reflecting formation of the dimeric complex (GAS41 YEATS domain): increase of luminescence signal; broadening of NMR signals (formation of a larger dimeric complex) [2]: induces very substantial broadening of signals |
| O=C(Nc1ccc(C(=O)N2CC(c3nc4ccccc4s3)C2)s1)[C@@H]1C[C@@H](OCCCCCCO[C@H]2CN[C@H](C(=O)Nc3ccc(C(=O)N4CC(c5nc6ccccc6s5)C4)s3)C2)CN1 [Compound 218] | < 500 | – |
| O=C(Nc1ccc(C(=O)N2CC(c3nccs3)C2)s1)[C@@H]1C[C@@H](OCCCCCCCCO[C@H]2CN[C@H](C(=O)Nc3ccc(C(=O)N4CC(c5nccs5)C4)s3)C2)CN1 [Compound 220] | < 500 | – |
| O=C(Nc1ccc(C(=O)N2CC(c3nc4ccccc4s3)C2)s1)[C@@H]1C[C@@H](OCCCCCCCCO[C@H]2CN[C@H](C(=O)Nc3ccc(C(=O)N4CC(c5nc6ccccc6s5)C4)s3)C2)CN1 [Compound 219] | < 500 | – |
| CN(C(=O)C1C[C@@H](OCCCCCCO[C@H]2CN[C@H](C(=O)N(C)c3ccc(C(=O)N4CC(c5nccs5)C4)s3)C2)CN1)c1ccc(C(=O)N2CC(c3nccs3)C2)s1 (stereo partly shown) [Compound 217] | < 500 | – |
| CC(C)(C)c1ccc(C(=O)N2CCCC2)s1 [Compound 134, (5-(tert-butyl)thiophen-2-yl)(pyrrolidin-1-yl)methanone] | – | IC50 ([1]; AlphaScreen, 100 nM MOCR-his6-Gas41, 25 nM H3K23crK27cr-biotin, read-out: IC50): 73000 nM |
| O=C(Nc1ccc(C(=O)N2CC(c3nccs3)C2)s1)[C@@H]1C[C@@H](OCc2ccc(CO[C@H]3CN[C@H](C(=O)Nc4ccc(C(=O)N5CC(c6nccs6)C5)s4)C3)cc2)CN1 [Compound 222] | < 500 | – |
| O=C(Nc1ccc(C(=O)N2CC(c3nccs3)C2)s1)[C@@H]1CCCN1 [Compound 85, (S)—N-(5-(3-(thiazol-2-yl)azetidine-1-carbonyl)thiophen-2-yl)pyrrolidine-2-carboxamide] | – | broadening of NMR signals (formation of a larger dimeric complex) [2]: not monomeric Compound 85 |
| O=C(Nc1ccc(C(=O)N2CC(c3nc4ccccc4s3)C2)s1)[C@@H]1CCCN1 [Compound 88] | – | dose dependent growth inhibition (H1299 cells; H1299 cells treated for 4 days): Only the dimer Compound 221 induces dose dependent growth inhibition |
| O=C(Nc1ccc(C(=O)N2CC(c3ncc(-c4cccc(COCc5cccc(-c6cnc(C7CN(C(=O)c8ccc(NC(=O)[C@@H]9CCCN9)s8)C7)s6)c5)c4)s3)C2)s1)C1CCCN1 (stereo partly shown) [Compound 210] | < 500 | – |
| CN(Cc1cccc(-c2cnc(C3CN(C(=O)c4ccc(NC(=O)C5CCCN5)s4)C3)s2)c1)Cc1cccc(-c2cnc(C3CN(C(=O)c4ccc(NC(=O)[C@@H]5CCCN5)s4)C3)s2)c1 (stereo partly shown) [Compound 212] | < 500 | – |
| CC(=O)NCCCCCCN(Cc1cccc(-c2cnc(C3CN(C(=O)c4ccc(NC(=O)C5CCCN5)s4)C3)s2)c1)Cc1cccc(-c2cnc(C3CN(C(=O)c4ccc(NC(=O)[C@@H]5CCCN5)s4)C3)s2)c1 (stereo partly shown) [Compound 213] | < 500 | – |
| O=C(Nc1ccc(C(=O)N2CC(c3nc4ccccc4s3)C2)s1)[C@@H]1C[C@@H](OCCCCO[C@H]2CN[C@H](C(=O)Nc3ccc(C(=O)N4CC(c5nc6ccccc6s5)C4)s3)C2)CN1 [Compound 221] | < 500 | IC50 [3]: 6000 nM; GI50 (H1299 cells; NCI-H1299, 96 h, H1299 cells treated for 4 days): ~3000 nM; GI50 (H1299 cells; NCI-H1299, 336 h, H1299 cells, day 14): ~6000 nM; inhibition at 12 µM (A549 cells): ~40%; effect on growth (A549 GAS41-KO cells): no effect; GI50 (H1933 cells): ~6000 nM |
| O=C(Nc1ccc(C(=O)N2CC(c3ncc(-c4cccc(CNCc5cccc(-c6cnc(C7CN(C(=O)c8ccc(NC(=O)[C@@H]9CCCN9)s8)C7)s6)c5)c4)s3)C2)s1)C1CCCN1 (stereo partly shown) [Compound 211] | < 500 | – |
